Experimental data reported in the supplement of paper PMC8617591.

How the values were obtained:
[1] = test system: Mycobacterium tuberculosis Erdman (autoluminescent); test: total FIC50 (Loewe) at 50% inhibition, three-drug combination (log2); higher = more antagonistic
Procedure: (§1)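 DiaMOND equipotent three-drug combination dose responses (10 doses, 1.5- or 2-fold spacing, centred on IC90) against autoluminescent M. tuberculosis Erdman in 8 in vitro models. Read-out is OD600, or luminescence for the intracellular and dormancy models, normalised to untreated wells. Hill-fit Einf, AUC25 and GRinf are potency metrics; FIC50 and FIC90 are total Loewe fractional inhibitory concentrations as log2 (negative = synergy).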

[2] = test system: Mycobacterium tuberculosis Erdman (autoluminescent); test: total FIC90 (Loewe) at 90% inhibition, three-drug combination (log2); higher = more antagonistic
Procedure: as §1

[3] = test system: Mycobacterium tuberculosis Erdman (autoluminescent); test: Einf, fitted maximum growth inhibition of three-drug combination (fraction); higher = stronger maximal inhibition
Procedure: as §1

[4] = test system: Mycobacterium tuberculosis Erdman (autoluminescent); test: AUC25, normalised area under dose response up to IC25 (three-drug combination) (fraction (0-1)); higher = more potent at low dose
Procedure: as §1

[5] = test system: Mycobacterium tuberculosis Erdman (autoluminescent); test: GRinf, maximum normalised growth rate inhibition (three-drug combination) (unitless (-1 to 1)); higher = less effect (negative = killing)
Procedure: as §1

NNC(=O)c1ccncc1 [isoniazid] + CC(=O)NC[C@H]1CN(c2ccc(N3CCOCC3)c(F)c2)C(=O)O1 [linezolid] + COc1c(N2C[C@@H]3CCCN[C@@H]3C2)c(F)cc2c(=O)c(C(=O)O)cn(C3CC3)c12 [moxifloxacin]
Conditions | AUC25, [4] | Einf, [3] | GRinf, [5] | total FIC50, [1] | total FIC90, [2]
in vitro model: acidic pH 5.7, time point: constant (~7 days, model-specific) | 0.109 | 0.747 | -0.275 | 0.122 | –
in vitro model: acidic pH 5.7, time point: terminal (~4-5 doublings, model-specific) | 0.0728 | 0.923 | -0.258 | 1.49 | 0.715
in vitro model: intracellular J774, time point: constant = terminal | – | 0.893 | -0.0263 | – | 0.67

Conditions | AUC25, [4] | Einf, [3] | GRinf, [5] | total FIC50, [1] | total FIC90, [2]
in vitro model: butyrate, time point: constant (~7 days, model-specific) | 0.086 | 0.917 | 0.00606 | 0.711 | 0.963
in vitro model: butyrate, time point: terminal (~4-5 doublings, model-specific) | 0.0553 | 0.956 | 0.0163 | 0.753 | 0.721
in vitro model: cholesterol 0.05 mM, time point: constant (~7 days, model-specific) | 0.149 | 0.654 | -0.302 | 0.796 | –
in vitro model: cholesterol 0.05 mM, time point: terminal (~4-5 doublings, model-specific) | 0.15 | 0.909 | -0.444 | 4.95 | 0.24
in vitro model: cholesterol-high 0.2 mM, time point: constant (~7 days, model-specific) | 0.114 | 0.933 | -0.214 | 0.427 | 1.53
in vitro model: cholesterol-high 0.2 mM, time point: terminal (~4-5 doublings, model-specific) | 0.105 | 1 | -0.842 | 0.413 | 0.848
in vitro model: dormancy (butyrate + nitrate, low O2), time point: constant (~7 days, model-specific) | 0.0474 | 0.851 | 0.271 | 1.12 | 0.548
in vitro model: dormancy (butyrate + nitrate, low O2), time point: terminal (~4-5 doublings, model-specific) | 0.0316 | 0.974 | -0.0773 | 1 | 0.562
in vitro model: standard 7H9 glycerol, time point: constant = terminal | 0.0712 | 0.97 | -0.21 | 0.644 | 0.854
in vitro model: valerate, time point: constant (~7 days, model-specific) | 0.104 | 0.888 | -0.0253 | 0.337 | –
in vitro model: valerate, time point: terminal (~4-5 doublings, model-specific) | 0.0614 | 0.935 | -0.00928 | 0.575 | 0.805

NNC(=O)c1ccncc1 [isoniazid] + CC(=O)NC[C@H]1CN(c2ccc(N3CCOCC3)c(F)c2)C(=O)O1 [linezolid] + NC(=O)c1cnccn1 [pyrazinamide]
Conditions | AUC25, [4] | Einf, [3] | GRinf, [5] | total FIC50, [1] | total FIC90, [2]
in vitro model: acidic pH 5.7, time point: constant (~7 days, model-specific) | 0.11 | 0.842 | -0.287 | -1.93 | –
in vitro model: acidic pH 5.7, time point: terminal (~4-5 doublings, model-specific) | 0.0984 | 0.983 | -0.282 | -1.83 | -1.21
in vitro model: intracellular J774, time point: constant = terminal | – | 0.956 | -0.246 | – | 0.444

Conditions | AUC25, [4] | Einf, [3] | GRinf, [5] | total FIC50, [1] | total FIC90, [2]
in vitro model: butyrate, time point: constant (~7 days, model-specific) | 0.108 | 0.91 | 0.0266 | -1.9 | 1.62
in vitro model: butyrate, time point: terminal (~4-5 doublings, model-specific) | 0.08 | 0.955 | 0.0226 | -1.67 | -1.24
in vitro model: cholesterol 0.05 mM, time point: constant (~7 days, model-specific) | 0.144 | 0.686 | -0.218 | – | –
in vitro model: cholesterol 0.05 mM, time point: terminal (~4-5 doublings, model-specific) | 0.14 | 0.89 | -0.273 | 4.08 | –
in vitro model: cholesterol-high 0.2 mM, time point: constant (~7 days, model-specific) | 0.0969 | 0.893 | -0.233 | 0.365 | –
in vitro model: cholesterol-high 0.2 mM, time point: terminal (~4-5 doublings, model-specific) | 0.0817 | 1 | -0.765 | 0.683 | 0.315
in vitro model: dormancy (butyrate + nitrate, low O2), time point: constant (~7 days, model-specific) | 0.0523 | 0.9 | 0.189 | -1.89 | -2.36
in vitro model: dormancy (butyrate + nitrate, low O2), time point: terminal (~4-5 doublings, model-specific) | 0.0408 | 0.987 | -0.229 | -1.99 | -2.42
in vitro model: standard 7H9 glycerol, time point: constant = terminal | 0.0756 | 0.939 | -0.0363 | -5.13 | –
in vitro model: valerate, time point: constant (~7 days, model-specific) | 0.0944 | 0.836 | 0.0599 | -2.58 | –
in vitro model: valerate, time point: terminal (~4-5 doublings, model-specific) | 0.0892 | 0.927 | 0.0322 | -2.64 | -3

NNC(=O)c1ccncc1 [isoniazid] + CC(=O)NC[C@H]1CN(c2ccc(N3CCOCC3)c(F)c2)C(=O)O1 [linezolid] + O=[N+]([O-])c1cn2c(n1)OC[C@@H](OCc1ccc(OC(F)(F)F)cc1)C2 [pretomanid]
Conditions | AUC25, [4] | Einf, [3] | GRinf, [5] | total FIC50, [1] | total FIC90, [2]
in vitro model: acidic pH 5.7, time point: constant (~7 days, model-specific) | 0.0901 | 0.793 | -0.0622 | 4.28 | –
in vitro model: acidic pH 5.7, time point: terminal (~4-5 doublings, model-specific) | 0.0757 | 0.953 | -0.252 | 4.74 | 4.06
in vitro model: intracellular J774, time point: constant = terminal | – | 0.984 | -0.382 | – | 1.1

Conditions | AUC25, [4] | Einf, [3] | GRinf, [5] | total FIC50, [1] | total FIC90, [2]
in vitro model: butyrate, time point: constant (~7 days, model-specific) | 0.103 | 0.921 | -0.0322 | 2.79 | 1.15
in vitro model: butyrate, time point: terminal (~4-5 doublings, model-specific) | 0.0738 | 0.963 | -0.0424 | 2.83 | 3.23
in vitro model: cholesterol 0.05 mM, time point: constant (~7 days, model-specific) | 0.129 | 0.69 | -0.147 | 1.32 | –
in vitro model: cholesterol 0.05 mM, time point: terminal (~4-5 doublings, model-specific) | 0.124 | 0.912 | -0.296 | 8.62 | 1.89
in vitro model: cholesterol-high 0.2 mM, time point: constant (~7 days, model-specific) | 0.107 | 0.924 | -0.361 | 0.772 | –
in vitro model: cholesterol-high 0.2 mM, time point: terminal (~4-5 doublings, model-specific) | 0.101 | 0.991 | -0.726 | 0.566 | 1.06
in vitro model: dormancy (butyrate + nitrate, low O2), time point: constant (~7 days, model-specific) | 0.0625 | 0.868 | 0.121 | 4.26 | 4.03
in vitro model: dormancy (butyrate + nitrate, low O2), time point: terminal (~4-5 doublings, model-specific) | 0.0423 | 0.987 | -0.233 | 4.19 | 4.02
in vitro model: standard 7H9 glycerol, time point: constant = terminal | 0.0856 | 0.917 | 0.116 | 4.72 | 6.4
in vitro model: valerate, time point: constant (~7 days, model-specific) | 0.126 | 0.88 | 0.0789 | 2.28 | 8.43
in vitro model: valerate, time point: terminal (~4-5 doublings, model-specific) | 0.0856 | 0.93 | 0.029 | 2.36 | 2.72
